Experiment [1] has as its target M2 H+ channel, Singapore wild-type (Influenza A virus, UniProt P10920). It counts as cell-based, Influenza A (Singapore H2N2 isolate).
In experiment [2] the target is influenza A virus M2 proton-selective ion channel, wild-type (Influenza A virus, UniProt P0DOF5). The settings on record: cited from earlier work.
Sequence of influenza A virus M2 proton-selective ion channel, wild-type (P0DOF5 whole entry, looked up): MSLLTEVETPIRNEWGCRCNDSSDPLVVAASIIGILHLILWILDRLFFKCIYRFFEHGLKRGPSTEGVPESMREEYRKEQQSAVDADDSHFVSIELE

Sequence of M2 H+ channel, Singapore wild-type (P10920 whole entry, looked up): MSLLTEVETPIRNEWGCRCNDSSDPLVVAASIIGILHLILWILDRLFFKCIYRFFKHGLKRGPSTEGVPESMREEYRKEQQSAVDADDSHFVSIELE

`NC12CC3CC(CC(C3)C1)C2` [amantadine, Amantadine]: in experiment [1], the “Ks (Monod coefficient, inhibitory constant)” value is 140 nM and the “relief of growth inhibition by the channel from the Singapore strain” value is listed as “substantially relieved”. Further, the “isochronic apparent inhibitory binding constant” value in experiment [2] was 16 µM.

In the case of `CC(N)C12CC3CC(CC(C3)C1)C2` (centres unmarked) [rimantadine, Rimantadine], in experiment [1], the “Ks (Monod coefficient, inhibitory constant)” value was found to be 15 nM; the “Ks (dynamic range statement)” value is listed as 15 nm; the “activity (growth retardation relief, O.D.600) compared between the two drugs” value is listed as “more pronounced than amantadine”; the “relief of growth inhibition by the channel from the Singapore strain” value is recorded as “substantially relieved”. Also, in experiment [1], the “relief of growth retardation of bacteria expressing the M2 channel” value is on record as “significantly alleviate”.

The values are drawn from patent publication US20130053277A1 (priority 2010, published 2013).
